# What was measured:
# [1] = test system: worker antennae of Vespula pensylvanica, Dolichovespula maculata, Polistes dominulus, and P. aurifer; assay: GC-EAD/MS analysis of SPME headspace samples of essential oils: antennal responses; conditions: for antennal (EAD) response to component of rosemary oil: V. pensylvanica and D. maculata antennae, FIG. 3; for antennal (EAD) response to component of geranium oil: V. pensylvanica, D. maculata, P. dominulus, or P. aurifer antennae
# Protocol: Headspace volatiles from greater than 10 types of essential oils (1 ml each in a closed 20 ml glass vial) were sampled via Solid-Phase Micro-Extraction (SPME) (CAR/PDMS, 85 μm, Supelco, Bellefonte, Pa.) for 20-30 sec before GC-EAD and GC-MS analyses.
# Paper wasp [European paper wasp (Polistes dominulus) or golden paper wasp (P. aurifer)] and yellowjacket [Western yellowjacket (Vespula pensylvanica) or Bald-faced hornet (Dolichovespula maculata)] workers for electrophysiological study were collected from their nests and kept alive at 4° C. before testing.
# SPME samples of the various essential oils were injected splitless into a Varian CP-3800 GC equipped with a polar column (HP-INNOWAX; 30 m×0.53 mm×1.0 μm film thickness; Agilent Technologies, Wilmington, Del., USA) and a 1:1 effluent splitter that allowed simultaneous flame ionization detection (FID) and electroantennographic detection (EAD) of either a yellowjacket or paper wasp worker antenna to the separated volatile compounds. Helium was used as the carrier gas, and the injector and detector temperatures were 250° C. and 300° C., respectively. Column temperature was 50° C. for 1 min, rising to 240° C. at 10° C./min, and then held for 10 min. The outlet for the EAD was held in a humidified air stream flowing at 0.5 m/sec over the antennal preparation. EAD recordings were made using silver wire-glass capillary electrodes filled with Beadle-Ephrussi Ringer on freshly cut antennae. The antennal signals were stored and analyzed on a PC equipped with a serial IDAC interface box and the program EAD ver. 2.5 (Syntech, Hilversum, The Netherlands).
# Compounds were identified by comparison of retention times with those of authentic standards and with mass spectra of standards.
# [2] = test system: Yellowjackets (mainly Vespula pensylvanica (ca. 90%), plus V. vulgaris, V. germanica, and Dolichovespula maculata); assay: Field trapping, Rescue W•H•Y traps baited with attractant AA/2MB: captures of yellowjackets; format: in vivo; conditions: N 9
# Protocol: (§1) Eleven field trapping experiments were carried out from late August to mid-October 2009 in residential and woody areas around Spokane, Wash., USA, mostly using the trap known by the designation Rescue® W•H•Y (except on one occasion that Rescue® Reusable Yellowjacket Traps were used for a natural food attractant; see below for details). The commercial W•H•Y trap has a top chamber and a bottom chamber and is described in U.S. Patent Application Publication No. 2009/0151228. The top chamber is baited with two attractants—one of which is a solid contained in a vial (2-methyl-1-butanol), and the other is a liquid mixed with water (acetic acid). The bottom chamber is baited with a liquid attractant (heptyl butyrate) poured onto a cotton pad. Separation of the two types of attractants (otherwise antagonistic to each other when released from the same chamber) in two chambers creates two focal attraction sources from one trap for different species of wasps, hornets, and yellowjackets. […] In a special occasion, the commercial Rescue® Reusable Yellowjacket Traps were each baited with 10 g of chopped bacon (loaded into a cartridge) as a natural protein food attractant. Traps were hung 1.5-2.0 m above the ground on either fences or tree branches ca. 5 m apart between each trap and at least 15 m between sets. For each trapping experiment, three sets of traps (i.e., three physical replicates of each treatment) were deployed with their initial trap positions within each set being randomized. To minimize positional effects and obtain more replications, wasp collections and trap re-randomization were carried out when 5-10 wasps were caught in the best traps. Each replicate lasted several days depending on wasp flight activity. Captured wasps were removed from the traps and kept in the zip-bags before returning to the laboratory for recording of the species, gender status, and catch. Repellent candidates (individuals or mixtures) were released from polyethylene bags (3×5 cm; with a fabric felt) with various thicknesses from 2-12 mil (see release rates listed in tables); they were employed inside the same trap chamber as the attractant.
# (§2) Experiment 1 tested five individual essential oils (pennyroyal, lemongrass, peppermint, clove, and citronella) and two known mosquito repellents (i.e., major components of catnip oil), E/Z-nepetalactone and Z/E-nepetalactone plus a blank control against a mixture of attractant [acetic acid (AA) and 2-methyl-1-butanol (2 MB)] using the W•H•Y traps (both attractant and repellent candidates were released from the top chamber) from for eight consecutive days from August to early September. Experiment 2 tested nine individual essential oils (ylang ylang, vetiver, myrrh, patchouli, geranium, eucalyptus, camphor, spearmint, and wintergreen) plus a blank control against a mixture of attractant (AA+2 MB) using the W•H•Y traps (both attractant and repellent candidates were released from the top chamber) for eight consecutive days from late August to early September. Experiment 3 tested seven individual essential oils (Roman chamomile, sage, fennel seed, rosemary, thyme, anise, and lavender) plus a blank control against a mixture of attractant (AA+2 MB) using the W•H•Y traps (both attractant and repellent candidates were released from the top chamber) for eight consecutive days from late August to early September. Experiment 4 tested two essential oil mixtures (3EO-mix: clove, geranium, and lemongrass in ca. 1:1:1 ratio; and 4EO-mix: clove, geranium, lemongrass, and rosemary in ca. 1:1:1:1 ratio) plus a blank control against a mixture of attractant (AA+2 MB) using the W•H•Y traps (both attractant and repellent candidates were released from the top chamber) for 13 consecutive days in September; the essential oil mixtures alone without attractant were tested in the same experiment.
# [3] = test system: Paper wasps (mainly Polistes dominulus, plus a few of P. aurifer); assay: Field trapping, Rescue W•H•Y traps baited with attractant AA/2MB: captures of paper wasps; format: in vivo; conditions: N 9
# Protocol: as §1, §2
# [4] = test system: vespid wasps (paper wasps, hornets and yellowjackets); assay: Field trapping experiments, repellency stated for vespid wasps as a whole (yellowjackets and paper wasps; summaries); format: in vivo, Vespula pensylvanica; Polistes dominulus; conditions: for activity at doses tested: Experiment 9; for repellency on either yellowjackets or paper wasps or both to the attractant AA/2 MB: Experiments 1-3, late August to early September
# Protocol: as §1, §2
# [5] = test system: Paper wasps (mainly Polistes dominulus, plus a few of P. aurifer); assay: Field trapping, Rescue W•H•Y traps baited with attractant heptyl butyrate: captures of paper wasps; format: in vivo
# Protocol: (§3) Eleven field trapping experiments were carried out from late August to mid-October 2009 in residential and woody areas around Spokane, Wash., USA, mostly using the trap known by the designation Rescue® W•H•Y (except on one occasion that Rescue® Reusable Yellowjacket Traps were used for a natural food attractant; see below for details). The commercial W•H•Y trap has a top chamber and a bottom chamber and is described in U.S. Patent Application Publication No. 2009/0151228. The top chamber is baited with two attractants—one of which is a solid contained in a vial (2-methyl-1-butanol), and the other is a liquid mixed with water (acetic acid). The bottom chamber is baited with a liquid attractant (heptyl butyrate) poured onto a cotton pad. Separation of the two types of attractants (otherwise antagonistic to each other when released from the same chamber) in two chambers creates two focal attraction sources from one trap for different species of wasps, hornets, and yellowjackets. In order to test potential repellency of essential oils or EAD-active synthetic candidate compounds on different types of attractants, W•H•Y traps were baited with either a top attractant or a bottom attractant depending on the experiments. […]
# [6] = test system: yellowjackets (mainly Vespula pensylvanica); assay: Field observation of landing and approaching of yellowjackets at heptyl butyrate attractant source (experiment 7); format: in vivo; conditions: Experiment 7, FIG. 1, attractant alone, 15 minutes observation replicates
# Protocol: In addition, the repellency of the essential oil mixture (3EO-mix; at 0 cm and 50 cm above the heptyl butyrate attractant) on the landing behavior of yellowjackets was field observed (as experiment 7) on a September day for roughly 1.5 hours in Spokane, Wash. This observation test was conducted in the sun by setting up in a line east to west four portable light gray folding tables (45.7×66.0×67.3 cm) in a level area of grass near a vineyard. These tables were placed approximately 3 m apart. Chairs were set up approximately 4 m away from the tables for the scientists conducting the observations. On each table a black lab support stand was used with a movable metal bar in the horizontal direction clamped to the support stand for placing a repellent PE-bag dispenser (2 ml of 3EO-mix) or blank PE-bag at either 0 cm or 50 cm above the attractant, heptyl butyrate. A white towel was used to cover the black base of the support stand to provide a uniform color. A circle felt pad (3.5 cm diameter) loaded with 3 ml of heptyl butyrate as attractant or left blank for a negative control in a Petri dish (9 cm diameter) was placed on the base of the stand. […]
# Trap catch data (number of wasps/trap/visit) and landing/approaching numbers were transformed by log (X+1) and the transformed means were analyzed by ANOVA, followed by the Duncan's multiple-range test (SPSS 16.0 for Windows) at α=0.05.
# [7] = test system: Yellowjackets (mainly Vespula pensylvanica (ca. 90%), plus V. vulgaris, V. germanica, and Dolichovespula maculata); assay: Field trapping, Rescue W•H•Y traps baited with attractant heptyl butyrate: captures of yellowjackets; format: in vivo; conditions: Table 5, Experiment 5; treatment alone (essential oil mix alone, or attractant HB alone); 13 days in September; N 18
# Protocol: as §3
# [8] = Table 10, Experiment 11, attractant AA/2MB alone (row AA/2MB) or plus chemical, 16 days in October
# [9] = Table 8, Experiment 9, attractant AA/2MB alone (row AA/2MB) or plus chemical, 13 days in September
# [10] = Table 9, Experiment 10, attractant AA/2MB alone (row AA/2MB) or plus chemical, 18 days end of September through mid-October
# [11] = Table 1, Experiment 1, attractant AA/2MB alone (row AA/2MB) or plus essential oil/chemical in same trap chamber, eight days late August to early September
compound,measurement,setting,value
"COc1ccc(C)cc1 [4-Methylanisole, 4-methylanisole]",antennal (EAD) response to component of ylang ylang oil,[1]; V. pensylvanica and P. dominulus worker antennae,strong and repeatable antennal responses
same,Mean/trap/visit ± SE Yellowjackets,[2]; [8],10.0 ± 5.0 b wasps/trap/visit
same,Mean/trap/visit ± SE Paper wasps,[3]; [8],0.9 ± 0.5 a wasps/trap/visit
same,repellency to either yellowjackets or paper wasps,"[4]; Experiment 11, AA/2 MB, at 90 mg/day release",did not show significant repellency
"CC1=CCC(O)(C(C)C)CC1 (stereo not shown) [4-Terpineol, 4-terpineol]",antennal (EAD) response to component of rosemary oil,[1],significant EAD-responses
same,Mean/trap/visit ± SE Yellowjackets,[2]; [9],23.3 ± 5.6 b wasps/trap/visit
same,Mean/trap/visit ± SE Paper wasps,[3]; [9],2.0 ± 0.7 ab wasps/trap/visit
same,activity at doses tested,[4]; AA/2 MB,inactive
"CC(C)=CCC/C(C)=C/CO [Geraniol, geraniol]",antennal (EAD) response to component of geranium oil,[1],significant and consistent EAD-responses
same,Mean/trap/visit ± SE Yellowjackets,[2]; [10],21.8 ± 6.0 cd wasps/trap/visit
same,Mean/trap/visit ± SE Paper wasps,[3]; [10],2.9 ± 0.9 b wasps/trap/visit
same,repellency at the dose tested,"[4]; Experiment 10, AA/2 MB",not different from the attractant alone
"CCCCCCCOC(=O)CCC [HB, heptyl butyrate]",attraction of paper wasps to heptyl butyrate,[5]; Experiment 5,not attracted
same,Mean/trap/visit ± SE Paper wasps,"[5]; Table 5, Experiment 5, treatment alone (essential oil mix alone, or attractant HB alone), 13 days in September, N 18",1.3 ± 0.6 a wasps/trap/visit
same,average number of yellowjackets landing,[6],5
same,average number of yellowjackets approaching,[6]; within 0.5 m,12
same,Mean/trap/visit ± SE Yellowjackets,[7],39.7 ± 13.6 b wasps/trap/visit
"CC1=CCC(C(C)(C)O)CC1 (stereo not drawn) [α-Terpineol, α-terpineol]",antennal (EAD) response to component of rosemary oil,[1],significant EAD-responses
same,Mean/trap/visit ± SE Yellowjackets,[2]; [9],21.9 ± 5.7 b wasps/trap/visit
same,Mean/trap/visit ± SE Paper wasps,[3]; [9],2.2 ± 0.9 ab wasps/trap/visit
same,activity at doses tested,[4]; AA/2 MB,inactive
"CC(C)=CCCC(C)CCO (stereo not drawn) [β-Citronellol, β-citronellol]",antennal (EAD) response to component of geranium oil,[1],significant and consistent EAD-responses
same,Mean/trap/visit ± SE Yellowjackets,[2]; [9],36.2 ± 6.8 b wasps/trap/visit
same,Mean/trap/visit ± SE Paper wasps,[3]; [9],5.1 ± 1.6 b wasps/trap/visit
same,activity at doses tested,[4]; AA/2 MB,inactive
E/Z-nepetalactone [EZ-Neptalactone],Mean/trap/visit ± SE Yellowjackets,[2]; [11],11.2 ± 3.6 b wasps/trap/visit
same,Mean/trap/visit ± SE Paper wasps,[3]; [11],3.2 ± 1.1 bc wasps/trap/visit
same,repellency on either yellowjackets or paper wasps or both to the attractant AA/2 MB,[4],partially significant repellency
Z/E-nepetalactone [ZE-Neptalactone],Mean/trap/visit ± SE Yellowjackets,[2]; [11],52.1 ± 16.2 cd wasps/trap/visit
same,Mean/trap/visit ± SE Paper wasps,[3]; [11],11.3 ± 4.5 c wasps/trap/visit
same,repellency on either yellowjackets or paper wasps or both to the attractant AA/2 MB,[4],partially significant repellency
